Ki data for 20 compounds are collected here from patent US10238743B2 (Merck Sharp & Dohme Corp., priority 2014, dated 2019).

SMILES strings stand for the structures.

Test [1] deals with soluble human BACE1 catalytic domain (Homo sapiens (Human), UniProt P56817). Nature of the test: BACE1 HTRF FRET Assay. In kind it is biochemical. To be noted: Ki calculated from IC50 using the Cheng-Prusoff equation; QSY7-APPswe-Eu substrate, pH 5.0; read-out: BACE-1 Ki. The source says: Na^+-Acetate pH 5.0; 1% Brij-35; Glycerol; Dimethyl Sulfoxide (DMSO); Recombinant human soluble BACE1 catalytic domain (>95% pure); APP Swedish mutant peptide substrate (QSY7-APP^swe-Eu): QSY7-EISEVNLDAEFC-Europium-amide.
A homogeneous time-resolved FRET assay can be used to determine IC50 values for inhibitors of the soluble human BACE1 catalytic domain. This assay monitors the increase of 620 nm fluorescence that resulted from BACE1 cleavage of an APPswedish APP^swe mutant peptide FRET substrate (QSY7-EISEVNLDAEFC-Europium-amide). This substrate contains an N-terminal QSY7 moiety that serves as a quencher of the C-terminal Europium fluorophore (620 nm Em). In the absence of enzyme activity, 620 nm fluorescence is low in the assay and increased linearly over 3 hours in the presence of uninhibited BACE1 enzyme. Inhibition of BACE1 cleavage of the QSY7-APP^swe-Eu substrate by inhibitors is manifested as a suppression of 620 nm fluorescence.
Varying concentrations of inhibitors at 3× the final desired concentration in a volume of 10 ul are preincubated with purified human BACE1 catalytic domain (3 nM in 10 μl) for 30 minutes at 30° C. in reaction buffer containing 20 mM Na-Acetate pH 5.0, 10% glycerol, 0.1% Brij-35 and 7.5% DSMO. Reactions are initiated by addition of 10 μl of 600 nM QSY7-APP^swe-Eu substrate (200 nM final) to give a final reaction volume of 30 μl in a 384 well Nunc HTRF plate. The reactions are incubated at 30° C. for 1.5 hours. The 620 nm fluorescence is then read on a Rubystar HTRF plate reader (BMG Labtechnologies) using a 50 millisecond delay followed by a 400 millisecond acquisition time window. Inhibitor IC50 values are derived from non-linear regression analysis of concentration response curves. Ki values are then calculated from IC50 values using the Cheng-Prusoff equation using a previously determined […] of 8 μM for the QSY7-APP^swe-Eu substrate at BACE1.

In test [2] the target is purified human autoBACE-2 (Homo sapiens (Human), UniProt Q9Y5Z0). Description: BACE-2 Assay (BACE-HTRF assay). In kind it is biochemical. To be noted: Ki calculated from IC50 using the Cheng-Prusoff equation; QSY7-EISEVNLDAEFC-Eu-amide substrate, pH 5.0. Here is the method:
Inhibitor IC50s at purified human autoBACE-2 are determined in a time-resolved endpoint proteolysis assay that measures hydrolysis of the QSY7-[…]-Eu-amide FRET peptide substrate (BACE-HTRF assay). […] DMSO is present at 5% final concentration in the assay. Following laser excitation of sample wells at 320 nm, the fluorescence signal at 620 nm is collected for 400 ms following a 50 μs delay on a RUBYstar HTRF plate reader (BMG Labtechnologies). Raw RFU data is normalized to maximum (1.0 nM BACE/DMSO) and minimum (no enzyme/DMSO) RFU values. […] The Ki values are calculated from the IC50 using the Cheng-Prusoff equation.

purified human autoBACE-2, sequence (Q9Y5Z0 63-473 limits assumed): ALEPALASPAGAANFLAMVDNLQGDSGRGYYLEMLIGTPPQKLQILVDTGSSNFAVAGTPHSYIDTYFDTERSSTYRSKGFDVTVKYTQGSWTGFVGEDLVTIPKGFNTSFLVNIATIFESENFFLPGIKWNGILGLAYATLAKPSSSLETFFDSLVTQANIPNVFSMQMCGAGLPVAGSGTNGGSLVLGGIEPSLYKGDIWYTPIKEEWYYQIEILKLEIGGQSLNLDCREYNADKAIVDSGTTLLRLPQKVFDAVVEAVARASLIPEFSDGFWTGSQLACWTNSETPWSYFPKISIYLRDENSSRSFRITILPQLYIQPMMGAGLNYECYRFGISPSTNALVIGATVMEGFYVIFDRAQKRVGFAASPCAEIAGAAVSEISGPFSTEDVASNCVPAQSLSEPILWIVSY
soluble human BACE1 catalytic domain, sequence (P56817 75-416): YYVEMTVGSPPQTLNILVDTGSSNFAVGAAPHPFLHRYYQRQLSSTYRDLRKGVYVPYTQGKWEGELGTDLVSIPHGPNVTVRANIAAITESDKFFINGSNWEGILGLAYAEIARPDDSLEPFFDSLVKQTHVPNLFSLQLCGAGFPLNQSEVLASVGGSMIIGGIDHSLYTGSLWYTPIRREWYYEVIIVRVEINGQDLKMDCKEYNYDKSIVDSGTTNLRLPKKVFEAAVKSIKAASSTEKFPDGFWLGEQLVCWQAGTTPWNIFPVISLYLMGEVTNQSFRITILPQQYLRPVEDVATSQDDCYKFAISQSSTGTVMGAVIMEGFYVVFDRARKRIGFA

Usually Ki stands for the dissociation constant of the complex between target and ligand, obtained from inhibition or displacement. As for `CN1C(=N)N[C@]2(C)c3cc(NC(=O)c4ncc(C(F)(F)F)cc4Cl)ccc3CCC[C@@H]2S1(=O)=O` [Example 30, 3-chloro-N-((4aS,11bR)-2-imino-3,11b-dimethyl-4,4-dioxido-1,2,3,4a,5,6,7,11b-octahydrobenzo[6,7]cyclohepta[1,2-e][1,2,4]thiadiazin-10-yl)-5-(trifluoromethyl)picolinamide], the Ki in test [1] was 10 nM; in test [2], 82 nM.

`Cc1cc(F)cnc1C(=O)Nc1ccc2c(c1)[C@@]1(C)NC(=N)N(C)S(=O)(=O)[C@H]1CCC2` [Example 31, 5-fluoro-N-((4aS,11bR)-2-imino-3,11b-dimethyl-4,4-dioxido-1,2,3,4a,5,6,7,11b-octahydrobenzo[6,7]cyclohepta[1,2-e][1,2,4]thiadiazin-10-yl)-3-methylpicolinamide]: the Ki in test [1] is 19 nM; in test [2], 10 nM.

On to `COc1cnc(C(=O)Nc2ccc3c(c2)[C@@]2(C)NC(=N)N(C)S(=O)(=O)[C@H]2CCC3)c(C)c1` [Example 32, N-((4aS,11bR)-2-imino-3,11b-dimethyl-4,4-dioxido-1,2,3,4a,5,6,7,11b-octahydrobenzo[6,7]cyclohepta[1,2-e][1,2,4]thiadiazin-10-yl)-5-methoxy-3-methylpicolinamide], for which the results for the Ki in test [1] and in test [2] were 27 nM and 34 nM, respectively.

On to `COc1cnc(C(=O)Nc2ccc3c(c2)[C@@]2(C)NC(=N)N(C)S(=O)(=O)[C@H]2CCC3)c(C)n1` [Example 33], for which the Ki was 48 nM in test [1] and 86 nM in test [2].

In the case of `COc1cnc(C(=O)Nc2ccc3c(c2)[C@@]2(C)NC(=N)N(C)S(=O)(=O)[C@H]2CCC3)cn1` [Example 34], the figures for the Ki in test [1] and in test [2] were 17 nM and 52 nM, respectively.

As for `Cc1cc(C#N)cnc1C(=O)Nc1ccc2c(c1)[C@@]1(C)NC(=N)N(C)S(=O)(=O)[C@H]1CCC2` [Example 35, 5-cyano-N-((4aS,11bR)-2-imino-3,11b-dimethyl-4,4-dioxido-1,2,3,4a,5,6,7,11b-octahydrobenzo[6,7]cyclohepta[1,2-e][1,2,4]thiadiazin-10-yl)-3-methylpicolinamide], the Ki in test [1] was 19 nM; in test [2] it was 10 nM.

For `CN1C(=N)N[C@]2(C)c3cc(NC(=O)c4ccc(C#N)cn4)ccc3CCC[C@@H]2S1(=O)=O` [Example 36], the Ki in test [1] is 4 nM; in test [2], 25 nM.

Turning to `CN1C(=N)N[C@]2(C)c3cc(NC(=O)c4ccc(F)cn4)ccc3CCC[C@H]2S1(=O)=O` [Example 37, 5-fluoro-N-((4aR,11bR)-2-imino-3,11b-dimethyl-4,4-dioxido-1,2,3,4a,5,6,7,11b-octahydrobenzo[6,7]cyclohepta[1,2-e][1,2,4]thiadiazin-10-yl)picolinamide], the Ki in test [1] is 159 nM; in test [2], 96 nM.

In the case of `CN1C(=N)N[C@]2(C)c3cc(NC(=O)c4ccc(OC(F)F)cn4)ccc3CCC[C@H]2S1(=O)=O` [Example 38, 5-(difluoromethoxy)-N-((4aR,11bR)-2-imino-3,11b-dimethyl-4,4-dioxido-1,2,3,4a,5,6,7,11b-octahydrobenzo[6,7]cyclohepta[1,2-e][1,2,4]thiadiazin-10-yl)picolinamide], the Ki is 80 nM in test [1] and 857 nM in test [2].

In the case of `CN1C(=N)N[C@]2(C)c3cc(NC(=O)c4ccc(C#N)cn4)ccc3CCC[C@H]2S1(=O)=O` [Example 39], the values for the Ki in test [1] and in test [2] were 60 nM and 315 nM, respectively.

Consider `Cc1cnc(C(=O)Nc2ccc3c(c2)[C@@]2(C)NC(=N)N(C)S(=O)(=O)[C@@H]2CCC3)cn1` [Example 40, N-((4aR,11bR)-2-imino-3,11b-dimethyl-4,4-dioxido-1,2,3,4a,5,6,7,11b-octahydrobenzo[6,7]cyclohepta[1,2-e][1,2,4]thiadiazin-10-yl)-5-methylpyrazine-2-carboxamide], for which the Ki is 1390 nM in test [1] and 2710 nM in test [2].

Take `COc1cnc2c(Nc3ccc4c(c3)[C@@]3(C)NC(=N)N(C)S(=O)(=O)[C@H]3CCO4)nccc2n1` [Example 41, (4aS,11bR)-2-imino-10-((2-methoxypyrido[3,4-b]pyrazin-5-yl)amino)-3,11b-dimethyl-2,3,4a,5,6,11b-hexahydro-1H-benzo[2,3]oxepino[4,5-e][1,2,4]-thiadiazine 4,4-dioxide]: the Ki in test [1] is 60 nM; in test [2], 135 nM.

Consider `COc1cnc2c(Nc3ccc4c(c3)[C@@]3(C)NC(=N)N(C)S(=O)(=O)[C@H]3CCO4)ccnc2c1` [Example 42, (4aS,11bR)-2-imino-10-((7-methoxy-1,5-naphthyridin-4-yl)amino)-3,11b-dimethyl-2,3,4a,5,6,11b-hexahydro-1H-benzo[2,3]oxepino[4,5-e][1,2,4]-thiadiazine 4,4-dioxide], for which the Ki in test [1] was 412 nM; in test [2], 1790 nM.

As to `COc1cnc2c(Nc3ccc4c(c3)[C@@]3(C)NC(=N)N(C)S(=O)(=O)[C@H]3CCO4)nccc2c1` [Example 43, (4aS,11bR)-2-imino-10-((3-methoxy-1,7-naphthyridin-8-yl)amino)-3,11b-dimethyl-2,3,4a,5,6,11b-hexahydro-1H-benzo[2,3]oxepino[4,5-e][1,2,4]-thiadiazine 4,4-dioxide], the Ki in test [1] was 57 nM; in test [2] it was 148 nM.

Take `COc1cnc2c(Nc3ccc4c(c3)[C@@]3(C)NC(=N)N(C)S(=O)(=O)[C@H]3CCC4)nccc2n1` [Example 44, (4aS,11bR)-2-imino-10-((2-methoxypyrido[3,4-b]pyrazin-5-yl)amino)-3,11b-dimethyl-1,2,3,4a,5,6,7,11b-octahydrobenzo[6,7]cyclohepta[1,2-e][1,2,4]-thiadiazine 4,4-dioxide]: the Ki is 45 nM in test [1] and 173 nM in test [2].

As to `COc1cnc2c(Nc3ccc4c(c3)[C@@]3(C)NC(=N)N(C)S(=O)(=O)[C@H]3CCC4)ccnc2n1` [Example 45, (4aS,11bR)-2-imino-10-((3-methoxypyrido[2,3-b]pyrazin-8-yl)amino)-3,11b-dimethyl-1,2,3,4a,5,6,7,11b-octahydrobenzo[6,7]cyclohepta[1,2-e][1,2,4]-thiadiazine 4,4-dioxide], the Ki in test [1] is 547 nM; in test [2], 2440 nM.

For `COc1cnc2c(Nc3ccc4c(c3)[C@@]3(C)NC(=N)N(C)S(=O)(=O)[C@H]3CCC4)nccc2c1` [Example 46, (4aS,11bR)-2-imino-10-((3-methoxy-1,7-naphthyridin-8-yl)amino)-3,11b-dimethyl-1,2,3,4a,5,6,7,11b-octahydrobenzo[6,7]cyclohepta[1,2-e][1,2,4]-thiadiazine 4,4-dioxide], the Ki in test [1] was 108 nM; in test [2], 251 nM.

In the case of `CN1C(=N)N[C@]2(C)c3cc(NC4CCCC4)ccc3OCC[C@@H]2S1(=O)=O` [Example 47, (4aS,11bR)-10-(cyclopentylamino)-2-imino-3,11b-dimethyl-2,3,4a,5,6,11b-hexahydro-1H-benzo[2,3]oxepino[4,5-e][1,2,4]thiadiazine 4,4-dioxide], the results for the Ki in test [1] and in test [2] were 348 nM and 716 nM, respectively.

Take `CN1C(=N)N[C@]2(C)c3cc(NCC4CC4)ccc3OCC[C@@H]2S1(=O)=O` [Example 48, (4aS,11bR)-10-((cyclopropylmethyl)amino)-2-imino-3,11b-dimethyl-2,3,4a,5,6,11b-hexahydro-1H-benzo[2,3]oxepino[4,5-e][1,2,4]thiadiazine 4,4-dioxide]: the Ki in test [1] is 880 nM; in test [2] it was 2010 nM.

For `CCCNc1ccc2c(c1)[C@@]1(C)NC(=N)N(C)S(=O)(=O)[C@H]1CCO2` [Example 49, (4aS,11bR)-2-imino-3,11b-dimethyl-10-(propylamino)-2,3,4a,5,6,11b-hexahydro-1H-benzo[2,3]oxepino[4,5-e][1,2,4]thiadiazine 4,4-dioxide], the Ki is 918 nM in test [1] and 1980 nM in test [2].
